Assay results taken from PMC6278306, “Anti-Leishmanial and Cytotoxic Activities of a Series of Maleimides: Synthesis, Biological Evaluation and Structure-Activity Relationship” (Molecules, 2018).
≈ marks a conversion by molar mass, not a printed value.

Columns and labels:
[1] = tested on: L. donovani promastigotes; test: In vitro anti-leishmanial assay (Alamar blue, promastigotes); type: cell-based, Leishmania donovani; details: for IC50: Leishmania donovani, 48 h, read-out: L. donvani IC50; for SI: SI = CC50 /IC50, THP1 vs promastigotes; for anti-leishmanial activity, times better than amphotericin B: L. donovani, relative to amphotericin B
Protocol: Anti-leishmanial activity in vitro was described in terms of IC50, which is the effective concentration (μg/mL) required to achieve 50% growth inhibition, with promastigotes in their exponential growth phase.
In vitro anti-leishmanial assay. The antileishmanial activity of the compounds was tested in vitro against a culture of L. donovani promastigotes. The promastigotes were grown in RPMI 1640 medium supplemented with 10% fetal calf serum (Gibco Chem. Co., 81 Wyman Street, Waltham, MA, USA) at 26 °C. A three day old culture was diluted to 5 × 10^5 promastigotes/mL. Drug dilutions were prepared directly in cell suspension in 96-well plates. Plates were incubated at 26 °C for 48 h and the growth of Leishmania promastigotes was determined by the Alamar blue assay as described earlier. Standard fluorescence was measured on a Fluostar Galaxy plate reader (BMG Lab Technologies, Offenburg, Germany) at an excitation wavelength of 544 nm and an emission wavelength of 590 nm. […] IC50 values were computed from dose-response curves as above. The tested compounds were diluted with six concentrations (from 40–0.0128 μg/mL). Cytotoxicity assay. The in vitro cytotoxicity was determined against human monocytic leukemia cells (THP1) with a simple colorimetric method using the dye Alamar Blue. […] Cells were grown to a density between 0.2 and 1 × 10^6 cells/mL. Culture medium was replaced every 2–3 days with fresh growth medium. DMSO was used as the solvent, and the test compounds was with six concentrations from 10–0.0032 μg/mL.

[2] = Cytotoxicity assay (Alamar Blue); type: cell-based; details: human, concentrations 10–0.0032 μg/mL
Protocol: In order to verify the safety of maleimides, they were tested for cytotoxicity against human monocytic leukemia cells (THP1) 50% cytotoxic concentration values represent the concentration of compound required to kill 50% of the THP1 cells were calculated (CC50). The selectivity indices were calculated using the formula SI = CC50 /IC50, against promastigotes. […] SIs of 16 and 42 were greater than 781.3.
In vitro anti-leishmanial assay. The antileishmanial activity of the compounds was tested in vitro against a culture of L. donovani promastigotes. The promastigotes were grown in RPMI 1640 medium supplemented with 10% fetal calf serum (Gibco Chem. Co., 81 Wyman Street, Waltham, MA, USA) at 26 °C. A three day old culture was diluted to 5 × 10^5 promastigotes/mL. Drug dilutions were prepared directly in cell suspension in 96-well plates. Plates were incubated at 26 °C for 48 h and the growth of Leishmania promastigotes was determined by the Alamar blue assay as described earlier. Standard fluorescence was measured on a Fluostar Galaxy plate reader (BMG Lab Technologies, Offenburg, Germany) at an excitation wavelength of 544 nm and an emission wavelength of 590 nm. Pentamidine and amphotericin B were used as the standard anti-leishmanial agents. IC50 values were computed from dose-response curves as above. The tested compounds were diluted with six concentrations (from 40–0.0128 μg/mL). Cytotoxicity assay. The in vitro cytotoxicity was determined against human monocytic leukemia cells (THP1) with a simple colorimetric method using the dye Alamar Blue. […] Cells were grown to a density between 0.2 and 1 × 10^6 cells/mL. Culture medium was replaced every 2–3 days with fresh growth medium. DMSO was used as the solvent, and the test compounds was with six concentrations from 10–0.0032 μg/mL.
The in vitro cytotoxicity was determined against human monocytic leukemia cells (THP1) with a simple colorimetric method using the dye Alamar Blue, which was reported in the reference (Mikus, J.; Steverding, D. A simple colorimetric method to screen drug cytotoxicity against Leishmania, using the dye Alamar Blue. Parasitol Int. 2000, 48(3),265-269.). THP1 suspensions were grown in RPMI-1640 medium supplemented with 10% FBS, 2 mM glutamine, 50 μg/mL […]
were grown to a density between 0.2 and 1×10^6 cells/mL. Culture medium was replaced every 2-3 days with fresh growth medium. DMSO was used as the solvent, and the test compounds was with six concentrations from 10-0.0032μg/mL.

[3] = THP1 cells (human monocytic leukemia)

SMILES	IC50 [1]	CC50 [2, 3]	melting point	SI [1]	CC50 ([2]; THP1 cells)	anti-leishmanial activity, times better than amphotericin B [1]
O=C1C=CC(=O)N1c1cc(F)c(F)c(F)c1 [Compound 15]	0.21 µg/mL (≈ 0.925 µM)	> 10 µg/mL	153.4 to 165.6 °C			
O=C1C(Cl)=C(Cl)C(=O)N1c1ccccc1 [Compound 34]	0.76 µg/mL (≈ 3.14 µM)			>13.2	> 10 µg/mL	
O=C1C=CC(=O)N1Cc1ccccc1 [Compound 6]	0.08 µg/mL (≈ 0.427 µM)	4.56 µg/mL (≈ 24.4 µM)		57.0		
CC1=CC(=O)N(C2CCCCC2)C1=O [Compound 27]	0.89 µg/mL (≈ 4.61 µM)	7.15 µg/mL (≈ 37 µM)	65.6 to 66.5 °C	8.0		
O=C1C(Cl)=C(Cl)C(=O)N1CCCc1ccccc1 [Compound 33]	0.4 µg/mL (≈ 1.41 µM)	> 10 µg/mL		>25.0		
CCCCCN1C(=O)C(Cl)=C(Cl)C1=O [Compound 29]	0.65 µg/mL (≈ 2.75 µM)			>15.4	> 10 µg/mL	
O=C1C(Cl)=C(Cl)C(=O)N1c1ccc(Cl)cc1 [Compound 37]	0.59 µg/mL (≈ 2.13 µM)			>16.9	> 10 µg/mL	
O=C1C=CC(=O)N1CCCc1ccccc1 [Compound 8]	0.11 µg/mL (≈ 0.511 µM)	8.25 µg/mL (≈ 38.3 µM)		75.0		
CC1=CC(=O)N(Cc2ccccc2)C1=O [Compound 21]	0.58 µg/mL (≈ 2.88 µM)	7.94 µg/mL (≈ 39.5 µM)		13.7		
CC1=CC(=O)N(CCc2ccccc2)C1=O [Compound 22]	1.22 µg/mL (≈ 5.67 µM)	5.99 µg/mL (≈ 27.8 µM)		4.9		
CC(C)CN1C(=O)C(Cl)=C(Cl)C1=O [Compound 44]	0.43 µg/mL (≈ 1.94 µM)	> 10 µg/mL	63.8 to 64.5 °C	>23.3		
O=C1C(Cl)=C(Cl)C(=O)N1CCc1ccccc1 [Compound 32]	1.64 µg/mL (≈ 6.07 µM)			>6.1	> 10 µg/mL	
O=C1C(Cl)=C(Cl)C(=O)N1c1ccc(F)cc1 [Compound 36]	0.36 µg/mL (≈ 1.38 µM)	> 10 µg/mL		>27.8		
Cc1c(N2C(=O)C(Cl)=C(Cl)C2=O)cccc1[N+](=O)[O-] [Compound 42]	< 0.0128 µg/mL	> 10 µg/mL	168.8 to 169.9 °C			10
N=C(N)c1ccc(OCCCCCOc2ccc(C(=N)N)cc2)cc1 [pentamidine, reference compound]	0.64 µg/mL (≈ 1.88 µM)					
O=C1C=CC(=O)N1C1CCCCC1 [Compound 17]	0.26 µg/mL (≈ 1.45 µM)	> 10 µg/mL		>38.5		
CCc1cccc(CC)c1N1C(=O)C=CC1=O [Compound 14]	0.08 µg/mL (≈ 0.349 µM)	3.89 µg/mL (≈ 17 µM)	192.8 to 194.1 °C	48.6		
Cc1ccc(N2C(=O)C(Cl)=C(Cl)C2=O)cc1 [Compound 35]	0.66 µg/mL (≈ 2.58 µM)			>15.2	> 10 µg/mL	
CCCCCCCCCCCCN1C(=O)C=CC1=O [Compound 5]	2.21 µg/mL (≈ 8.33 µM)	> 10 µg/mL		>4.5		
O=C1C(Cl)=C(Cl)C(=O)N1C1CCCCC1 [Compound 45]	0.26 µg/mL (≈ 1.05 µM)		67.2 to 68.5 °C	>38.5	> 10 µg/mL	

SMILES	IC50 [1]	CC50 [2, 3]	melting point	SI [1]	CC50 ([2]; THP1 cells)	anti-leishmanial activity, times better than amphotericin B [1]
CCCCCCCCN1C(=O)C=CC1=O [Compound 4]	0.27 µg/mL (≈ 1.29 µM)	> 10 µg/mL		>37.0		
CCCCCN1C(=O)C=CC1=O [Compound 2]	0.36 µg/mL (≈ 2.15 µM)	> 10 µg/mL		>27.8		
CCCCCCCCN1C(=O)C=C(C)C1=O [Compound 20]	0.96 µg/mL (≈ 4.3 µM)	8.1 µg/mL (≈ 36.3 µM)		8.4		
CCCCN1C(=O)C(Cl)=C(Cl)C1=O [Compound 28]	0.47 µg/mL (≈ 2.12 µM)			>21.3	> 10 µg/mL	
O=C1C=CC(=O)N1CCc1ccccc1 [Compound 7]	0.1 µg/mL (≈ 0.497 µM)	4.13 µg/mL (≈ 20.5 µM)		41.3		
CCCCCCN1C(=O)C=CC1=O [Compound 3]	0.11 µg/mL (≈ 0.607 µM)	> 10 µg/mL		>90.9		
CC(C)CN1C(=O)C=CC1=O [Compound 16]	< 0.0128 µg/mL	> 10 µg/mL	52.8 to 53.9 °C			10
CC1=CC(=O)N(c2c(C)cccc2C)C1=O [Compound 23]	13.2 µg/mL (≈ 61.2 µM)	> 10 µg/mL	190.8 to 192 °C	>0.8		
CCCCCN1C(=O)C=C(C)C1=O [Compound 18]	0.58 µg/mL (≈ 3.2 µM)	7.64 µg/mL (≈ 42.2 µM)		13.2		
O=C1C=CC(=O)N1c1ccc(Cl)cc1 [Compound 12]	1.02 µg/mL (≈ 4.91 µM)	> 10 µg/mL		>9.8		
CCCCN1C(=O)C=CC1=O [Compound 1]	0.08 µg/mL (≈ 0.522 µM)	> 10 µg/mL		>125.0		
O=C1C(Cl)=C(Cl)C(=O)N1c1cc(Cl)cc(Cl)c1 [Compound 43]	0.99 µg/mL (≈ 3.18 µM)			>10.1	> 10 µg/mL	
CCCCCCCCN1C(=O)C(Cl)=C(Cl)C1=O [Compound 31]	0.48 µg/mL (≈ 1.73 µM)			>20.8	> 10 µg/mL	
Cc1ccc(N2C(=O)C=CC2=O)cc1 [Compound 10]	0.15 µg/mL (≈ 0.801 µM)	> 10 µg/mL		>66.7		
O=C1C=CC(=O)N1c1ccc(F)cc1 [Compound 11]	0.32 µg/mL (≈ 1.67 µM)	> 10 µg/mL		>31.3		
CCCCCCN1C(=O)C(Cl)=C(Cl)C1=O [Compound 30]	0.49 µg/mL (≈ 1.96 µM)			>20.4	> 10 µg/mL	
CC1=CC(=O)N(CC(C)C)C1=O [Compound 26]	0.64 µg/mL (≈ 3.83 µM)	> 10 µg/mL		>15.6		
O=C1C=CC(=O)N1c1ccccc1 [Compound 9]	0.24 µg/mL (≈ 1.39 µM)	> 10 µg/mL		>41.7		
CCCCCCN1C(=O)C=C(C)C1=O [Compound 19]	0.81 µg/mL (≈ 4.15 µM)	5.89 µg/mL (≈ 30.2 µM)		7.3		
